Experimental data from PMC7048242 (Cancer letters, 2018).

Tests used:
[1] = tested on: S100B promoter; test: HTS cell-based S100B promoter-driven luciferase reporter assay; parameters: species or system human
[2] = tested on: S100B; test: S100B expression in GL261 cells; assay type: cell-based, mouse
[3] = tested on: S100B; details: cited from earlier work
[4] = tested on: GL261-Luc cells
[5] = tested on: CCL2; details: GL261 cells, 48 h incubation
[6] = tested on: K-Luc gliomas
[7] = tested on: U251 glioma cells; details: 5 μM, U251 (not shown)
[8] = tested on: tumor-associated myeloid-derived cells
[9] = tested on: S100B, RAGE, CCL2
[10] = tested on: intracranial GL261 gliomas
[11] = tested on: K-Luc cells; details: K-Luc cell line
[12] = tested on: tumor-associated leukocytes; details: 30 mg/kg/14 days, LPS 0.5 μg/ml 24 h, q-PCR
[13] = in vivo; details: C57BL/6, mouse, po, 30 mg/kg
[14] = contralateral brain tissue without tumor

**Q.** With NC[C@H](O)c1ccc(O)c(O)c1 [NE, norepinephrine] as the compound, how does the “S100B promoter activity in U251-Luc” value ([1]; NE added every 3 h, luciferase measured in 12 h) read?
**A.** The value was “induced”.

**Q.** And the “S100B expression in GL261” value ([2]; NE added every 3 h, 24 h, Western analysis)?
**A.** The value was “induced”.

**Q.** With CNCCC(Oc1ccc(C(F)(F)F)cc1)c1ccccc1 (centres unmarked) [fluoxetine] as the compound, how does the “S100B expression in rat astrocytes in vivo” value [3] read?
**A.** Its value is “stimulated”.

**Q.** For CNCC[C@H](Oc1cccc2ccccc12)c1cccs1 [Duloxetine], which Cell proliferation ([4]; GL261, Dul concentration < 10 μM) is on record?
**A.** Its Cell proliferation is “not significantly inhibited”.

**Q.** What about the LD50 ([4]; GL261-Luc cells, 24 h incubation) of the same compound?
**A.** The LD50 was 25.1 µM.

**Q.** What about the CCL2 expression [5] of the same compound?
**A.** The CCL2 expression was “inhibited”.

**Q.** And the S100B promoter activity ([1]; 5 μM, luciferase measured 24 h after treatment)?
**A.** Its S100B promoter activity is “inhibited”.

**Q.** What about the IC50 ([1]; Homo sapiens, U-251) of the same compound?
**A.** Its IC50 is 10 µM.

**Q.** What about the “Overall tumor levels of S100B and RAGE” value ([6]; K-Luc tumor-bearing mice, daily for 14 days) of the same compound?
**A.** The value was “did not significantly change”.

**Q.** What about the “Growth of K-Luc tumors” value ([6]; two-week treatment) of the same compound?
**A.** Its value is “did not significantly inhibit”.

**Q.** What about the Cytotoxicity [7] of the same compound?
**A.** Its Cytotoxicity is “without causing cytotoxicity”.

**Q.** What about the “Proportion of macrophages, monocytic myeloid-derived cells and neutrophils in GL261 gliomas” value ([8]; 30 mg/kg x 14 days, FACS) of the same compound?
**A.** The value was “decreased”.

**Q.** What about the “Pathway Scores for innate and adaptive immunity processes in tumors” value ([8]; Nanostring, GL261 tumors (not in TME)) of the same compound?
**A.** The value was “significantly higher”.

**Q.** And the “CCL2 expression in GL261 gliomas (immunohistochemistry)” value ([9]; 30 mg/kg, two weeks)?
**A.** Its value is “decrease”.

**Q.** And the “Total brain S100B, RAGE or CCL2 protein levels” value ([9]; GL261 tumor-bearing mice, 5 or 30 mg/kg/14 days, tumor and peritumoral tissue)?
**A.** The value was “did not significantly inhibit”.

**Q.** And the “Serum S100B and soluble RAGE (sRAGE) levels” value ([9]; GL261 tumor-bearing mice, two-week treatment)?
**A.** The value was “Nor mouse serum S100B and soluble RAGE (sRAGE) levels changed”.

**Q.** And the “S100B and RAGE in i.c. GL261 tumors (histochemistry)” value ([9]; two-week treatment, tumor cells)?
**A.** Its value is “effectively inhibited”.

**Q.** And the Tumor growth ([10]; i.c. GL261, 14 days treatment started a day after implantation)?
**A.** Its Tumor growth is “significantly decreased”.

**Q.** What about the Animal survival ([10]; i.c. GL261, high doses (30 mg/kg/14 days), started a day after implantation) of the same compound?
**A.** Its Animal survival is “improved”.

**Q.** And the S100B expression ([2]; GL261 cells, low concentrations, 24 h (qPCR), 48 h (Western, ELISA, immunostains))?
**A.** Its S100B expression is “inhibited”.

**Q.** What about the “Cell proliferation in vitro” value [11] of the same compound?
**A.** The value was “modest inhibitory effect”.

**Q.** What about the “Il-1β expression by tumor-associated leukocytes” value [12] of the same compound?
**A.** Its value is “higher levels”.

**Q.** What about the “Il-6, Il-10 and Tgf-β expression by tumor-associated leukocytes” value [12] of the same compound?
**A.** The value was “lower levels”.

**Q.** And the concentration at 0.5 h ([13]; GL261 tumor)?
**A.** The concentration at 0.5 h was 48.8 µM.

**Q.** What about the concentration at 2 h ([13]; GL261 tumor) of the same compound?
**A.** The concentration at 2 h was 70.8 µM.

**Q.** And the concentration at 6 h ([13]; GL261 tumor)?
**A.** Its concentration at 6 h is 24.9 µM.

**Q.** What about the concentration at 12 h ([13]; GL261 tumor) of the same compound?
**A.** The concentration at 12 h was 10 µM.

**Q.** What about the concentration at 0.5 h [13, 14] of the same compound?
**A.** The concentration at 0.5 h was 36.3 µM.

**Q.** What about the concentration at 2 h [13, 14] of the same compound?
**A.** The concentration at 2 h was 65.9 µM.

**Q.** What about the concentration at 6 h [13, 14] of the same compound?
**A.** Its concentration at 6 h is 24.2 µM.

**Q.** And the concentration at 12 h [13, 14]?
**A.** Its concentration at 12 h is 9.64 µM.

**Q.** What about the concentration at 0.5 h ([13]; plasma) of the same compound?
**A.** Its concentration at 0.5 h is 3.04 µM.

**Q.** And the concentration at 2 h ([13]; plasma)?
**A.** Its concentration at 2 h is 2.12 µM.

**Q.** And the concentration at 6 h ([13]; plasma)?
**A.** Its concentration at 6 h is 1.28 µM.

**Q.** What about the concentration at 12 h ([13]; plasma) of the same compound?
**A.** The concentration at 12 h was 0.39 µM.
